Source: patent publication US20240110220A1, “DETECTING BETA-LACTAMASE ENZYME ACTIVITY” (COMMISSARIAT A L'ENERGIE ATOMIQUE ET AUX ENERGIES …, priority 2021, published 2024)

Experiment: Test strip by competition with hydrolysed cefotaxime added to the sample
Format: binding
Conditions: signal equivalent to the control
Description: The optimisation of these two parameters was carried out for the five antibodies selected. […] In parallel, hydrolysed cefotaxime was added in order to check that the antibody is indeed specific to the non-hydrolysed form.
For all these three parameters, a colour intensity scale was used to evaluate the results obtained on the test strips. This scale was defined from 1 to 10, where each value is characteristic of an increasing signal intensity.
96-well microplates were used for all these tests. […] Then, a strip composed of a sample paper, a nitrocellulose membrane and an absorbent paper, were deposited in the wells. An incubation of 10 minutes was performed, then the signal intensity was evaluated with the colour intensity scale.
A control was produced (condition at 0 ng/ml), in order to see the maximum signal that could be obtained on the TL (Table 4).
By way of example, other antibodies have been tested. The conditions of use of the antibodies are as follows: Antibody 1, DO0.5, 0.3 mg/ml of BSA-cefotaxime; Antibody 2, DO1, 0.3 mg/ml of BSA-cefotaxime; Antibody 3, DO0.5, 0.1 mg/ml of BSA-cefotaxime; Antibody 4, DO0.5, 0.3 mg/ml of BSA-cefotaxime; Antibody 5, DO0.5, 0.3 mg/ml of BSA-cefotaxime (Table 5).

CO/N=C(\C(=O)N[C@H](C(=O)O)C1NC(C(=O)O)=C(COC(C)=O)CS1)c1csc(N)n1 (stereo partly shown) [hydrolysed cefotaxime]
recognition by the tracer antibody: not recognised
